Reference: ChEMBL document CHEMBL3044645, “Synthesis and Pesticidal Activities of N-Phosphinoyl Heterocycles” (J Pestic Sci, 1997)

Legend:
[1] = test system: Meloidogyne incognita; assay: Insecticidal activity against Meloidogyne incognita (root-knot nematode); type: functional, organism-based
[2] = test system: Myzus persicae; assay: Insecticidal activity against Myzus persicae (green peach aphid); type: functional
[3] = test system: Tetranychus urticae; assay: Insecticidal activity against Tetranychus urticae (two-spotted spider mite); type: functional
[4] = test system: Musca domestica; assay: Insecticidal activity against adult Musca domestica (house fly) assessed per adult; type: functional
[5] = test system: Meloidogyne incognita; assay: Nematicidal activity against Meloidogyne incognita (root-knot nematode) at 8 kg/ha after 3 weeks; type: functional
[6] = test system: Myzus persicae; assay: Aphicidal activity against Myzus persicae (green peach aphid) in cabbage leaf at 800 ppm after 2 days; type: functional
[7] = test system: Tetranychus urticae; assay: Acaricidal activity against Tetranychus urticae (two-spotted spider mite) in French bean leaf at 800 ppm after 2 days; type: functional
[8] = test system: Myzus persicae; assay: Aphicidal activity against Myzus persicae (green peach aphid) in cabbage leaf at 200 to 800 ppm after 2 days; type: functional
[9] = test system: Tetranychus urticae; assay: Acaricidal activity against Tetranychus urticae (two-spotted spider mite) in French bean leaf at 200 to 800 ppm after 2 days; type: functional
[10] = Dissociation constant, pKa of the compound by titration method; type: physicochemical
[11] = test system: Meloidogyne incognita; assay: Nematicidal activity against Meloidogyne incognita (root-knot nematode) at 4 to 8 kg/ha after 3 weeks; type: functional
[12] = test system: Meloidogyne incognita; assay: Nematicidal activity against Meloidogyne incognita (root-knot nematode) at 1 kg/ha after 3 weeks; type: functional
[13] = test system: Myzus persicae; assay: Aphicidal activity against Myzus persicae (green peach aphid) in cabbage leaf at 50 to 200 ppm after 2 days; type: functional
[14] = test system: Tetranychus urticae; assay: Acaricidal activity against Tetranychus urticae (two-spotted spider mite) in French bean leaf at 50 to 200 ppm after 2 days; type: functional
[15] = biological target: Acetylcholinesterase (Musca domestica, UniProt Q7YWJ9); assay: Inhibition of Musca domestica (house fly) head AchE; conditions: read-out: I50
Acetylcholinesterase, sequence (Q7YWJ9 whole entry): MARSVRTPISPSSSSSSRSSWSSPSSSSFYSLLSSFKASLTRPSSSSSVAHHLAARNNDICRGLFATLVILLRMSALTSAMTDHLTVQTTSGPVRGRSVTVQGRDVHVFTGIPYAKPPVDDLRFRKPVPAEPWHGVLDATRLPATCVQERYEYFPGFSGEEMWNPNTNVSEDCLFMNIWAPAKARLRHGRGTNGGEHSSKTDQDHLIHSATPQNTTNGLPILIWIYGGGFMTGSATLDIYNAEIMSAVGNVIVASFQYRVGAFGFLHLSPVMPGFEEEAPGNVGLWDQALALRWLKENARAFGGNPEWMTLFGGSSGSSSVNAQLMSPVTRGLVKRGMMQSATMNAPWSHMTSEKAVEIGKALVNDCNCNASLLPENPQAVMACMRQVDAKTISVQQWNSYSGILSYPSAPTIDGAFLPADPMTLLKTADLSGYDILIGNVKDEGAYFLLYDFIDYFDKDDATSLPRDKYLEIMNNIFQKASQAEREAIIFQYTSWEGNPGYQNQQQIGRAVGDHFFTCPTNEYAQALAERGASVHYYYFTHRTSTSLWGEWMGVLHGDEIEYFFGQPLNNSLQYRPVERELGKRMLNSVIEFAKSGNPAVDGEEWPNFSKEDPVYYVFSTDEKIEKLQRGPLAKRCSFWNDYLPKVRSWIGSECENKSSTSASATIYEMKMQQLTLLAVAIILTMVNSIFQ

[16] = test system: Meloidogyne incognita; assay: Nematicidal activity against Meloidogyne incognita (root-knot nematode) at 1 to 4 kg/ha after 3 weeks; type: functional
[17] = test system: Tetranychus urticae; assay: Acaricidal activity against Tetranychus urticae (two-spotted spider mite) in French bean leaf at <50 ppm after 2 days; type: functional
[18] = test system: Myzus persicae; assay: Aphicidal activity against Myzus persicae (green peach aphid) in cabbage leaf at <50 ppm after 2 days; type: functional
[19] = Acute toxicity in Mus musculus (mouse); type: organism-based; conditions: in vivo

In the case of CCOP(=O)(SC(C)CC)N1CCSC1=O (racemic) [FOSTHIAZATE], the EC50 [1] is reported as 29.6 ppm, the LC50 [2] is reported as >4.06 ppm and the LC50 [3] is reported as >22.4 ppm. It also gave an Activity [4] of 18 µg.
With CCOP(=O)(SC(C)CC)N1CC(=O)SC1=O (stereo not given) the Activity [5] was >25%, the Activity [6] was <90% and the Activity [7] was <90%.
With CCOP(=S)(SC(C)CC)N1CCOC1=O (stereo not given) the Activity [5] was >25%, the Activity [8] was >90% and the Activity [9] was >90%.
In the case of CCOP(=O)(SC(C)CC)N1C(=O)CCC1=O (stereo not given), the pKa [10] is reported as 9.6, the Activity [5] is reported as >25% and the Activity [6] is reported as <90%. For the same molecule, the Activity [7] was <90%.
In the case of CCOP(=O)(SC(C)CC)N1CC(C#N)OC1=O (stereo not given), the Activity [11] is reported as 0%, the Activity [6] is reported as <90% and the Activity [9] is reported as >90%.
In the case of CCCSP(=O)(SC)N1CCOC1=O (stereo not given), the Activity [5] is reported as >25%, the Activity [6] is reported as <90% and the Activity [7] is reported as <90%.
With CCC(C)SP(=O)(OC)N1CCOC1=O (stereo not given) the Activity [5] was >25%, the Activity [8] was >90% and the Activity [9] was >90%.
For CCCSP(=O)(NC)N1CCOC1=O (stereo not given), the Activity [5] was >25%, the Activity [8] was >90% and the Activity [9] was >90%.
With CCOP(=O)(SC(C)CC)N1CCSC1=O (single isomer, unassigned; (+)) [FOSTHIAZATE] the EC50 [1] was 2.339 ppm, the LC50 [2] was >53.7 ppm and the LC50 [3] was >800 ppm. It also gave an Activity [4] of 1.945 µg.
In the case of CCOP(=O)(SC(C)CC)N1CC(S(C)(=O)=O)OC1=O (stereo not given), the Activity [11] is reported as 0%, the Activity [8] is reported as >90% and the Activity [9] is reported as >90%.
For CCOP(=O)(SC(C)CC)N1C(=O)OCC1OC (stereo not given), the Activity [12] was 0%, the Activity [13] was >90% and the Activity [14] was >90%.
For CCOP(=O)(SC(C)CC)N1C(=O)OCC1C(=O)OC (stereo not given), the Activity [5] was >25%, the Activity [6] was <90% and the Activity [9] was >90%.
With CCOP(=O)(SC(C)CC)n1ccoc1=O (stereo not given) the Activity [5] was >25%, the Activity [6] was <90% and the Activity [7] was <90%.
With CCOP(=O)(OCC)N1CCOC1=O the Activity [5] was >25%, the Activity [6] was <90% and the Activity [7] was <90%.
For CCOP(=O)(SC(C)CC)N1CCSC1=O (stereo in doubt; (-)-8) [FOSTHIAZATE], the EC50 [1] was 0.079 ppm, the LC50 [2] was >13.2 ppm and the LC50 [3] was 35.7 ppm. The Activity [4] was 0.108 µg and the IC50 [15] was > 1 mM.
In the case of CCOP(=O)(SC(C)C)N1CCOC1=O (stereo not given), the Activity [11] is reported as 0%, the Activity [8] is reported as >90% and the Activity [9] is reported as >90%.
With CCCCC1COC(=O)N1P(=O)(OCC)SC(C)CC (stereo not given) the Activity [16] was 0%, the Activity [6] was <90% and the Activity [9] was >90%.
With CCOP(=O)(SC(C)CC)N1CCCC1=O (stereo not given) the Activity [12] was 0%, the Activity [13] was >90% and the Activity [9] was >90%.
For CCOP(=O)(SC(C)CC)N1C(=O)OC(C)C1C (stereo not given), the Activity [12] was 0% and the Activity [17] was >90%.
In the case of CCOP(=O)(SC(C)CC)N1CCSC1=S (stereo not given), the Activity [5] is reported as >25%, the Activity [8] is reported as >90% and the Activity [14] is reported as >90%.
In the case of CCOP(=O)(SCC(C)C)N1CCOC1=O (stereo not given), the Activity [16] is reported as 0%, the Activity [18] is reported as >90% and the Activity [17] is reported as >90%.
Molecule CCOP(=O)(SC(C)CC)N1CCSC1=O (stereo not given) [FOSTHIAZATE] has an LD50 [19] of 127 mg/kg, a pKa [10] of 11.6 and an Activity [12] of 0%. The Activity [18] was >90% and the Activity [17] was >90%.
With CCOP(=O)(SC(C)CC)N1CCCOC1=O (stereo not given) the Activity [11] was 0%, the Activity [8] was >90% and the Activity [9] was >90%.
With CCOP(=O)(SC(C)CC)N1CC(C(C)(C)C)OC1=O (stereo not given) the Activity [11] was 0%, the Activity [8] was >90% and the Activity [14] was >90%.
In the case of CCCOP(=O)(SC(C)CC)N1CCOC1=O (stereo not given), the Activity [11] is reported as 0%, the Activity [8] is reported as >90% and the Activity [9] is reported as >90%.
For CCOP(=O)(SC(C)CC)N1C(=O)OCC1CC (stereo not given), the Activity [12] was 0%, the Activity [18] was >90% and the Activity [17] was >90%.
In the case of CCOP(=O)(SC(C)CC)N1CCSC1=C(C#N)C#N (stereo not given), the Activity [5] is reported as >25%, the Activity [8] is reported as >90% and the Activity [7] is reported as <90%.
In the case of CCOP(=O)(SC(C)CC)N1OCCC1=O (stereo not given), the pKa [10] is reported as 10.5, the Activity [5] is reported as >25% and the Activity [8] is reported as >90%. For the same molecule, the Activity [9] was >90%.
For CCOP(=O)(SC(C)CC)N1CCOC1=O (stereo not given), the LD50 [19] was < 30 mg/kg, the pKa [10] was 11.8 and the Activity [12] was 0%. For the same molecule, the Activity [18] was >90% and the Activity [17] was >90%.
With CCOP(=O)(SC(C)CC)N1CC(C)OC1=O (stereo not given) the Activity [12] was 0%, the Activity [18] was >90% and the Activity [17] was >90%.
For CCC(C)SP(=O)(OCCF)N1CCOC1=O (stereo not given), the Activity [11] was 0%, the Activity [8] was >90% and the Activity [7] was <90%.
For CCOP(=O)(SC(C)CC)N1C(=O)OCC1C (stereo not given), the Activity [12] was 0%, the Activity [18] was >90% and the Activity [17] was >90%.
